Source: patent EP0517225A1, “Aminopyrrolidine platinum compounds, a process for preparing them and pharmaceutical compositions containing them” (priority 1991, dated 1992)

Key:
male BDF₁ mice = assay: Acute toxicity test, LD50 i.p. (Litchfield-Wilcoxon method); type: in vivo; details: 6-7 week-old male BDF₁ mice, 18-22 g
[1] = system: E.coli bacterial strain, AB2463 mutant strain (RecA); assay: Mutagenicity test: mortality of RecA-deficient E. coli strain; type: cell-based; details: RecA strain AB2463, treated for 2 hours at 37 °C
Experimental: A summary of results in mutagenicity and acute toxicity tests is given hereinbelow. a) Mutagenicity tests: E.coli bacterial strain, AB2463 mutant strain (RecA) was used. […] RecA strain, AB2463 mutant strain, which is defective in the recombination and induction of SOS system, was treated for 2 hours at 37^ºC with compounds of the present invention. […]

Structure (SMILES)	LD₅₀ (male BDF₁ mice)	LD₁₀ [1]	LD₅₀ [1]	LD₉₀ [1]
CCN1CCC(N)C1C.[Cl][Pt][Cl] (stereo not drawn) [Example 2, Cis-dichloro(3-amino-1-ethyl-2-methylpyrrolidine)platinum^(II)]	60.95 mg/kg	15.86 µM	57.08 µM	301.27 µM
N.N.[Cl][Pt][Cl] [Cisplatin, reference compound]	–	5.72 µM	17.0 µM	56.0 µM
CCC1C(N)CCN1C.[Cl][Pt][Cl] (stereo not drawn) [Example 3, Cis-dichloro(3-amino-2-ethyl-1-methylpyrrolidine)platinum^(II)]	82.72 mg/kg	10.74 µM	17.89 µM	35.78 µM
CCC1C(N)CCN1CC.[Cl][Pt][Cl] (stereo not drawn) [Example 4, Cis-dichloro(3-amino-1,2-diethylpyrrolidine)platinum^(II)]	113.81 mg/kg	18.97 µM	35.57 µM	72.33 µM
N.N.O=C([O-])C1(C(=O)[O-])CCC1.[Pt+2] [Carboplatin, reference compound]	117.5 mg/kg	71.53 µM	606.0 µM	1599 µM
CC1C(N)CCN1C.[Cl][Pt][Cl] (stereo not drawn) [Example 1, Cis-dichloro(3-amino-1,2-dimethylpyrrolidine)platinum^(II)]	95.02 mg/kg	>1.2 µM	5.98 µM	13.15 µM
